From patent US20230092890A1, “1, 3, 4-Oxadiazole derivative compounds as histone deacetylase 6 inhibitor, and the pharmaceutical composition comprising the same” (Chong Kun Dang Pharmaceutical Corp., priority 2019, published 2023)

Tests used:
[1] = biological target: T1, HDAC1 (Homo sapiens, UniProt Q13547); experiment: HDAC enzyme activity inhibition (in vitro), HDAC1 Fluorimetric Drug Discovery Assay Kit; type: biochemical; conditions: samples at 100, 1000 and 10000 nM; 37° C. 60 minutes; fluorescence Ex 390, Em 460; read-out: HDAC1 IC50
T1 construct: purchased Enzolifesciences BML-AK511
T1 sequence (Q13547 whole entry): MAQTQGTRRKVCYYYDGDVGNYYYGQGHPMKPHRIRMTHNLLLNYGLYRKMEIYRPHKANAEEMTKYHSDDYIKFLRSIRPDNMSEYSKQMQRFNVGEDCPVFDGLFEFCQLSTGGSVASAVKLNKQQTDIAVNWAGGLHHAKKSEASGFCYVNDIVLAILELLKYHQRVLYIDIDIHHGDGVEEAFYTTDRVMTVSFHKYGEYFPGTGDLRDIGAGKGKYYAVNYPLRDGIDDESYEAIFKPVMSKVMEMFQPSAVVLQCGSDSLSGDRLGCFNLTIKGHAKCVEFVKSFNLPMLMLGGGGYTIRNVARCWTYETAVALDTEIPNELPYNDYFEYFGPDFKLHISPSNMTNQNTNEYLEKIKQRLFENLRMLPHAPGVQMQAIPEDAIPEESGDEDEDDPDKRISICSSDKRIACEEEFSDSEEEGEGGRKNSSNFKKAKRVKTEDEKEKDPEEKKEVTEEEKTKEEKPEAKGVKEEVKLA
Summary of the method: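 Compounds at 100, 1000, 10000 nM (HDAC1) or 0.1, 1, 10, 100, 1000 nM (HDAC6); 37° C, 60 min; developer, 37° C, 30 min; fluorescence Ex 390/Em 460.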

[2] = biological target: T2, HDAC6 human recombinant (Homo sapiens, UniProt Q9UBN7); experiment: HDAC enzyme activity inhibition (in vitro), HDAC6 assay; type: biochemical; conditions: samples at 0.1, 1, 10, 100 and 1000 nM; 37° C. 60 minutes; fluorescence Ex 390, Em 460; read-out: HDAC6 IC50
T2 construct: purchased Calbiochem 382180
T2 sequence (Q9UBN7 1-1215): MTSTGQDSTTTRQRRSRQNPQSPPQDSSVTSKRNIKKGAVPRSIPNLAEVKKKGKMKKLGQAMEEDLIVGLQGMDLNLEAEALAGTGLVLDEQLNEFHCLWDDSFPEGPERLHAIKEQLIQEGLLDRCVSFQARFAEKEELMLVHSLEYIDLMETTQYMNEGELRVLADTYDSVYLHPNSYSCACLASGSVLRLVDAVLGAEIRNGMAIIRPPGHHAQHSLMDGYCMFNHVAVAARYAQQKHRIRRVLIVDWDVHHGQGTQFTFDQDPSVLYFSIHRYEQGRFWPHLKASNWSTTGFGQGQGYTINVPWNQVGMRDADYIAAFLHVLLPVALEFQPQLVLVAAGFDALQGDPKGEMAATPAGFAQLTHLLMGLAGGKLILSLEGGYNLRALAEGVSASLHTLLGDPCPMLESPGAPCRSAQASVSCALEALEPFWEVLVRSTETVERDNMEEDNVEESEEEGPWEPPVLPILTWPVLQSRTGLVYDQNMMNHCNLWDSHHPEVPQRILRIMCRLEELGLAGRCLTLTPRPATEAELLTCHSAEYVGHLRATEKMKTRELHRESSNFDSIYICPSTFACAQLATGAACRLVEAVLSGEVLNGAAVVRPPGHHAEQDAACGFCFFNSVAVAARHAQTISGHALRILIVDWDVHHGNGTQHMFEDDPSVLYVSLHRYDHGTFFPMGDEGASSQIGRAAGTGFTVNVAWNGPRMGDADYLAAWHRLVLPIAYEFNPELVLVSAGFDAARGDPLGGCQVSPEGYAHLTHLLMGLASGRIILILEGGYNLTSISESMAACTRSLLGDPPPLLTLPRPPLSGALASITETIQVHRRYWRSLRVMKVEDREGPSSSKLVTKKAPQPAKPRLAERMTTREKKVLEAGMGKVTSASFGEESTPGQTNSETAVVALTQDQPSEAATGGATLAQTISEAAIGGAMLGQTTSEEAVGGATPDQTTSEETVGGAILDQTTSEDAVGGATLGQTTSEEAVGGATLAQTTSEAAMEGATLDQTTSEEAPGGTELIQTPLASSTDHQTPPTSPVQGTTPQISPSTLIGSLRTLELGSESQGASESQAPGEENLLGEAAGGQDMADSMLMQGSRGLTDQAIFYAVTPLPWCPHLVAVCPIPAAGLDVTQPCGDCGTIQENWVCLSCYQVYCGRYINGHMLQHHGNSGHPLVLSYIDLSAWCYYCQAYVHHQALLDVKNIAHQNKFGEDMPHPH
Summary of the method: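 HDAC6 human recombinant enzyme with fluorimetric substrate; […]. Reaction 60 min at 37° C, then developer 30 min at 37° C; fluorescence read at Ex 390/Em 460.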

| SMILES | IC50 [1] [nM] | IC50 [2] [nM] |
| --- | --- | --- |
| CC(=O)N1CCC(n2c(=O)n(Cc3ccc(-c4nnc(C(F)F)o4)cn3)c3cc(F)c(F)cc32)CC1 [Compound 173, 1-(1-acetylpiperidine-4-yl)-3-((5-(5-(difluoromethyl)-1,3,4-oxadiazole-2-yl)pyridine-2-yl)methyl)-5,6-difluoro-1,3-dihydro-2H-benzo[d]imidazole-2-one] | > 10000 | 31 |
| CC(=O)N1CCC(n2c(=O)n(Cc3ccc(-c4nnc(C(F)F)o4)cc3F)c3cc(F)c(F)cc32)CC1 [Compound 174, 1-(1-acetylpiperidine-4-yl)-3-(4-(5-(difluoromethyl)-1,3,4-oxadiazole-2-yl)-2-fluorobenzyl)-5,6-difluoro-1,3-dihydro-2H-benzo[d]imidazole-2-one] | > 10000 | 50 |
| CC(=O)N1CCC(n2c(=O)n(Cc3ccc(-c4nnc(C(F)F)o4)cc3)c3cc(F)c(F)cc32)CC1 [Compound 175, 1-(1-acetylpiperidine-4-yl)-3-(4-(5-(difluoromethyl)-1,3,4-oxadiazole-2-yl)benzyl)-5,6-difluoro-1,3-dihydro-2H-benzo[d]imidazole-2-one] | > 10000 | 50 |
| CC(=O)N1CCC(n2c(=O)n(Cc3ccc(-c4nnc(C(F)F)o4)cn3)c3cc(C(F)(F)F)ccc32)CC1 [Compound 176, 1-(1-acetylpiperidine-4-yl)-3-((5-(5-(difluoromethyl)-1,3,4-oxadiazole-2-yl)pyridine-2-yl)methyl)-5-(trifluoromethyl)-1,3-dihydro-2H-benzo[d]imidazole-2-one] | > 10000 | 42 |
| Cc1ccc(-c2cc3c(cc2F)n(Cc2ccc(-c4nnc(C(F)F)o4)cn2)c(=O)n3C)o1 [Compound 177, 1-((5-(5-(difluoromethyl)-1,3,4-oxadiazole-2-yl)pyridine-2-yl)methyl)-6-fluoro-3-methy 1-5-(5-methylfuran-2-yl)-1,3-dihydro-2H-benzo[d]imidazole-2-one] | > 10000 | 71 |
| Cc1noc(C)c1-c1cc2c(cc1F)n(Cc1ccc(-c3nnc(C(F)F)o3)cn1)c(=O)n2C [Compound 178, 1-((5-(5-(difluoromethyl)-1,3,4-oxadiazole-2-yl)pyridine-2-yl)methyl)-5-(3,5-dimethylisoxazole-4-yl)-6-fluoro-3-methyl-1,3-dihydro-2H-benzo[d]imidazole-2-one] | > 10000 | 20 |
| CN1CCC(n2c(=O)n(Cc3ccc(-c4nnc(C(F)F)o4)cc3F)c3ccc(C4CCN(C(=O)CO)CC4)cc32)CC1 [Compound 179, 1-(4-(5-(difluoromethyl)-1,3,4-oxadiazole-2-yl)-2-fluorobenzyl)-5-(1-(2-hydroxyacetyl)piperidine-4-yl)-3-(1-methylpiperidine-4-yl)-1,3-dihydro-2H-benzo[d]imidazole-2-one] | > 10000 | 145 |
| CC(=O)N1CCC(n2c(=O)n(Cc3ccc(-c4nnc(C(F)F)o4)cc3F)c3cc(C(F)(F)F)ccc32)CC1 [Compound 180, 1-(1-acetylpiperidine-4-yl)-3-(4-(5-(difluoromethyl)-1,3,4-oxadiazole-2-yl)-2-fluorobenzyl)-5-(trifluoromethyl)-1,3-dihydro-2H-benzo[d]imidazole-2-one] | > 10000 | 38 |
| CC(=O)N1CCC(n2c(=O)n(Cc3ccc(-c4nnc(C(F)F)o4)cn3)c3ccc(Cl)cc32)CC1 [Compound 181, 3-(1-acetylpiperidine-4-yl)-5-chloro-1-((5-(5-(difluoromethyl)-1,3,4-oxadiazole-2-yl)pyridine-2-yl)methyl)-1,3-dihydro-2H-benzo[d]imidazole-2-one] | > 10000 | 68 |
| CC(=O)N1CCC(n2c(=O)n(Cc3ccc(-c4nnc(C(F)F)o4)cc3F)c3ccc(Cl)cc32)CC1 [Compound 182, 3-(1-acetylpiperidine-4-yl)-5-chloro-1-(4-(5-(difluoromethyl)-1,3,4-oxadiazole-2-yl)-2-fluorobenzyl)-1,3-dihydro-2H-benzo[d]imidazole-2-one] | > 10000 | 118 |
| CC(=O)N1CCC(n2c(=O)n(Cc3ccc(-c4nnc(C(F)F)o4)cc3)c3ccc(Cl)cc32)CC1 [Compound 183, 3-(1-acetylpiperidine-4-yl)-5-chloro-1-(4-(5-(difluoromethyl)-1,3,4-oxadiazole-2-yl)benzyl)-1,3-dihydro-2H-benzo[d]imidazole-2-one] | > 10000 | 73 |
| CC(=O)N1CCC(n2c(=O)n(Cc3ccc(-c4nnc(C(F)F)o4)cn3)c3ncccc32)CC1 [Compound 184, 1-(1-acetylpiperidine-4-yl)-3-((5-(5-(difluoromethyl)-1,3,4-oxadiazole-2-yl)pyridine-2-yl)methyl)-1,3-dihydro-2H-imidazo[4,5-b]pyridine-2-one] | > 10000 | 137 |
| CC(=O)N1CCC(n2c(=O)n(Cc3ccc(-c4nnc(C(F)F)o4)cc3F)c3ncccc32)CC1 [Compound 185, 1-(1-acetylpiperidine-4-yl)-3-(4-(5-(difluoromethyl)-1,3,4-oxadiazole-2-yl)-2-fluorobenzyl)-1,3-dihydro-2H-imidazo[4,5-b]pyridine-2-one] | > 10000 | 202 |
| CC(=O)N1CCC(n2c(=O)n(Cc3ccc(-c4nnc(C(F)F)o4)cc3)c3ncccc32)CC1 [Compound 186, 1-(1-acetylpiperidine-4-yl)-3-(4-(5-(difluoromethyl)-1,3,4-oxadiazole-2-yl)benzyl)-1,3-dihydro-2H-imidazo[4,5-b]pyridine-2-one] | > 10000 | 554 |
| CC(=O)N1CCC(n2c(=O)n(Cc3ccc(-c4nnc(C(F)F)o4)cn3)c3ccccc32)CC1 [Compound 187, 1-(1-acetylpiperidine-4-yl)-3-((5-(5-(difluoromethyl)-1,3,4-oxadiazole-2-yl)pyridine-2-yl)methyl)-1,3-dihydro-2H-benzo[d]imidazole-2-one] | > 10000 | 64 |
| O=c1n(Cc2ccc(-c3nnc(C(F)F)o3)cc2F)c2cc(F)ccc2n1C1CCS(=O)(=O)CC1 [Compound 189, 3-(4-(5-(difluoromethyl)-1,3,4-oxadiazole-2-yl)-2-fluorobenzyl)-1-(1,1-dioxydotetrahydro-2H-thiopyran-4-yl)-5-fluoro-1,3-dihydro-2H-benzo[d]imidazole-2-one] | > 10000 | 37 |
| O=c1n(Cc2ccc(-c3nnc(C(F)F)o3)cc2)c2cc(F)ccc2n1C1CCS(=O)(=O)CC1 [Compound 190, 3-(4-(5-(difluoromethyl)-1,3,4-oxadiazole-2-yl)benzyl)-1-(1,1-dioxydotetrahydro-2H-thiopyran-4-yl)-5-fluoro-1,3-dihydro-2H-benzo[d]imidazole-2-one] | > 10000 | 46 |
| CS(=O)(=O)N1CCC(n2c(=O)n(Cc3ccc(-c4nnc(C(F)F)o4)cn3)c3c(F)cccc32)CC1 [Compound 191, 3-((5-(5-(difluoromethyl)-1,3,4-oxadiazole-2-yl)pyridine-2-yl)methyl)-4-fluoro-1-(1-(methylsulfonyl)piperidine-4-yl)-1,3-dihydro-2H-benzo[d]imidazole-2-one] | > 10000 | 37 |
| CS(=O)(=O)N1CCC(n2c(=O)n(Cc3ccc(-c4nnc(C(F)F)o4)cc3)c3cc(F)ccc32)CC1 [Compound 192, 3-(4-(5-(difluoromethyl)-1,3,4-oxadiazole-2-yl)benzyl)-5-fluoro-1-(1-(methylsulfonyl)piperidine-4-yl)-1,3-dihydro-2H-benzo[d]imidazole-2-one] | > 10000 | 79 |
